Results on 24 compounds are retold here after ChEMBL document CHEMBL1641590, “Identification of novel ASK1 inhibitors using virtual screening” (Bioorg Med Chem, 2011).

The structures appear in SMILES notation. A value given as a limit tells only on which side of the number the result lay.

The target of the first experiment is T1, Mitogen-activated protein kinase kinase kinase 5 (Homo sapiens, UniProt Q99683).
T1 sequence (Q99683 whole entry): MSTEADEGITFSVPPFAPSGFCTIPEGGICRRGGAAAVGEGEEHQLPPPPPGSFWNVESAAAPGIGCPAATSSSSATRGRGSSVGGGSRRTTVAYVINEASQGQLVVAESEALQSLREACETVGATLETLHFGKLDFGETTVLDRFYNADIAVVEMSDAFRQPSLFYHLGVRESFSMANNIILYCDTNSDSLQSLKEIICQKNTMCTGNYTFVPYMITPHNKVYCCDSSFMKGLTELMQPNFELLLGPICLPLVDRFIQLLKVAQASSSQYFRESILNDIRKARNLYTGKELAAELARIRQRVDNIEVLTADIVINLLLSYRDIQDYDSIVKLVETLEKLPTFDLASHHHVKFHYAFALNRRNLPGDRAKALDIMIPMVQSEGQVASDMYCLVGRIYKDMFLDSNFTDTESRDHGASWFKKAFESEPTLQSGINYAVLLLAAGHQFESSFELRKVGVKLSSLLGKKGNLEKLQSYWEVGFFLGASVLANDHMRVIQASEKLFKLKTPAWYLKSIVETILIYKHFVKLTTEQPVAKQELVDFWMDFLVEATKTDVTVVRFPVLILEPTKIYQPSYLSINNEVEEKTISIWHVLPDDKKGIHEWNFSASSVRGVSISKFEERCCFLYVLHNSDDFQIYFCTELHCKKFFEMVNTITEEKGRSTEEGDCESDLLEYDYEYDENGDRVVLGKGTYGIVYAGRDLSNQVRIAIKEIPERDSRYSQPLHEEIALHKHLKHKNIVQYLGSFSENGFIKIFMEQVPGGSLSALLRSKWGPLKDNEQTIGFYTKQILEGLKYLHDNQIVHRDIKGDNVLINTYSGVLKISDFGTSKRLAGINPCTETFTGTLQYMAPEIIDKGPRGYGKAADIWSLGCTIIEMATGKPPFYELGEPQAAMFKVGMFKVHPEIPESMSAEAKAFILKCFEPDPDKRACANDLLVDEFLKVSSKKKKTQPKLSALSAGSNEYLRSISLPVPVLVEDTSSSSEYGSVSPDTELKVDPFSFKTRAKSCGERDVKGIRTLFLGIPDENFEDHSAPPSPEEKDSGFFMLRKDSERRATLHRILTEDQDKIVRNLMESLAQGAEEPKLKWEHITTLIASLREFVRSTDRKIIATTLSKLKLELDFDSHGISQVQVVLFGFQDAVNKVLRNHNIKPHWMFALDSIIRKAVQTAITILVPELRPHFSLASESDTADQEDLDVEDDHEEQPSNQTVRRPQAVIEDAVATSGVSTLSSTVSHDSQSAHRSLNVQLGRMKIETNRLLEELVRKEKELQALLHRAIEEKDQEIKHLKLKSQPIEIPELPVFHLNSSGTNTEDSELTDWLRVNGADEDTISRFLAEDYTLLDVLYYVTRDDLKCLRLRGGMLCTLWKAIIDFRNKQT
Kind of experiment: Inhibition of ASK1 assessed as phosphorylated fluorescent peptide by mobility shift assay.
Regarding `CC(C)(C)c1ccc(C(=O)Nc2cn3cc(-n4ccnc4)ccc3n2)cc1`, the IC50 came to 0.014 µM.

With `COc1ccc(OC)c(Nc2nc(N)nc3[nH]cnc23)c1`, the IC50 is 18.9 µM.

Regarding `CSc1nc(N)nc2[nH]cnc12`, the IC50 is 13.3 µM.

As to `CC(C)(C(=O)O)c1ccc(C(=O)Nc2cn3cc(-c4ccsc4)ccc3n2)cc1`, the IC50 was 0.019 µM.

In the case of `CCCN(CCC)c1[nH]cnc2ncnc1-2`, the IC50 is 25.8 µM.

`CC(C)(C)c1ccc(C(=O)Nc2cn3c(ccc4ccccc43)n2)cc1`: the IC50 came out at 0.015 µM.

As for `c1nc(N2CCCCC2)c2nc[nH]c2n1`, the IC50 was found to be 17 µM.

In the next experiment the target is T2, Mitogen-activated protein kinase kinase kinase 5 (Homo sapiens) (UniProt Q99683).
T2 sequence (whole entry): T1 sequence (Q99683 whole entry)
Kind of experiment: Inhibition of ASK1 assessed as phosphorylated fluorescent peptide at 10 uM by mobility shift assay.
With `Nc1nc(SCCCCC(O)O)c2nc[nH]c2n1`, the inhibition was > 30%.

For the compound `Nc1nc(OCC2CCCCC2)c2nc[nH]c2n1`, the inhibition is > 50%.

Take `COc1ccc(OC)c(Nc2nc(N)nc3[nH]cnc23)c1`: the inhibition was > 50%.

Turning to `CSc1nc(N)nc2[nH]cnc12`, the inhibition is > 50%.

With `O=C(Nc1ccc(N2CCOCC2)cc1)c1n[nH]c2ccccc12`, the inhibition was > 30%.

As for `NC(=O)c1ccc(-n2cnc3ccccc32)cc1`, the inhibition is > 30%.

For `Cc1c(C)n(C2CCCC2)c2nc[nH]c(=O)c12`, the inhibition was > 30%.

As to `CN(C)c1ncnc2nc[nH]c12`, the inhibition is > 30%.

Consider `CS(=O)(=O)c1ccc(C(=O)Nc2nc3ccccc3[nH]2)cc1[N+](=O)[O-]`, for which the inhibition is > 30%.

On to `Nc1nc(SCc2c(Cl)cccc2Cl)c2nc[nH]c2n1`, for which the inhibition is > 30%.

Regarding `CNc1nc(-c2cccnc2)cn2ccnc12`, the inhibition was > 30%.

As for `CCCN(CCC)c1[nH]cnc2ncnc1-2`, the inhibition is > 50%.

For the compound `COc1cccc(C(=O)NN2CC(=O)C(c3nc4ccccc4c(=O)[nH]3)=C2N)c1`, the inhibition was > 30%.

Consider `CCNc1nc(N)c(C(C)=O)s1`, for which the inhibition is > 30%.

`CNc1nc(N)c(C(=O)c2ccc(F)cc2)s1`: the inhibition was > 30%.

Take `Cc1c(C)n(CC(C)C)c2ncnc(N)c12`: the inhibition was > 30%.

For `O=C(Nc1nc2ccccc2[nH]1)c1ccc2ncsc2c1`, the inhibition was > 30%.

For the compound `Nc1nc(Nc2cccc3ccccc23)c2nc[nH]c2n1`, the inhibition is > 30%.

Regarding `c1nc(N2CCCCC2)c2nc[nH]c2n1`, the inhibition was > 50%.

On to `Nc1nc(OCc2ccccc2)c2nc[nH]c2n1`, for which the inhibition was > 30%.

Turning to `Nc1nc(N)c2c(Cl)c(Br)ccc2n1`, the inhibition is > 30%.

Broadly, the IC50 is the concentration that inhibits the measured activity by half. The inhibition is the percentage by which the read-out fell short of the control.
